Results from publication PMC2875304 (Experimental parasitology, 2010).
Like-named read-outs stand apart in the source and are kept apart here. No end group written: not given here.

Experiments:
[1] = test system: Trypanosoma cruzi (M/HOM/AR/74/CA-I CL72); format: cell-based; conditions: for IC50: 50% reduction in untreated-culture growth after 96 hours, triplicate wells, three independent trials
[2] = test system: Rhodococcus rhodnii; test: Minimal Inhibitory Concentration; format: cell-based; conditions: single AMP treatment, result in words
[3] = test system: E. coli DH5α; test: Minimal Inhibitory Concentration; format: cell-based, Escherichia coli; conditions: single AMP treatment, result in words

## GIGKFLHSAKKFGKAFVGEIMNS [Magainin, Magainin II]
[1]; read-out: IC50B, peptide B alone
  IC50: 10 µM

## GNNRPVYIPQPRPPHPRL-NH2 [Apidaecin, Apidaecin 14]
[1]; read-out: IC50A, peptide A alone
  IC50: 0.7 µM

## KWKLFKKIEKVGQNIRDGIIKAGPAVAVVGQATQIAK-NH2 [Cecropin A]
[1]; single peptide, 96 hour treatment, 0 to 10 μM concentration range
  Growth inhibition of T. cruzi: ≤ 50%

## QGYQGGYTRPFPRPPYGGGYHPVPVCTSCHRLSPLQARACCRQLGRCCDAKQTYG [Penaeidin, penaeidin]
[2]
  Effect on R. rhodnii in MIC assay: did not have an effect
[3]
  Effect on E. coli in MIC assay: did not have an effect
